IC50 data for 21 compounds are collected here from US8883826B2, “Alkynyl derivatives as modulators of metabotropic glutamate receptors” (Addex Pharma SA, priority 2004, dated 2014).

For the test, the target named is T1, mGluR5 (Rattus norvegicus, UniProt P31424).
T1 construct: tissue Charles River Laboratories; host or cells: rat brain cortex membranes (Sprague-Dawley)
T1 sequence (P31424 21-1203): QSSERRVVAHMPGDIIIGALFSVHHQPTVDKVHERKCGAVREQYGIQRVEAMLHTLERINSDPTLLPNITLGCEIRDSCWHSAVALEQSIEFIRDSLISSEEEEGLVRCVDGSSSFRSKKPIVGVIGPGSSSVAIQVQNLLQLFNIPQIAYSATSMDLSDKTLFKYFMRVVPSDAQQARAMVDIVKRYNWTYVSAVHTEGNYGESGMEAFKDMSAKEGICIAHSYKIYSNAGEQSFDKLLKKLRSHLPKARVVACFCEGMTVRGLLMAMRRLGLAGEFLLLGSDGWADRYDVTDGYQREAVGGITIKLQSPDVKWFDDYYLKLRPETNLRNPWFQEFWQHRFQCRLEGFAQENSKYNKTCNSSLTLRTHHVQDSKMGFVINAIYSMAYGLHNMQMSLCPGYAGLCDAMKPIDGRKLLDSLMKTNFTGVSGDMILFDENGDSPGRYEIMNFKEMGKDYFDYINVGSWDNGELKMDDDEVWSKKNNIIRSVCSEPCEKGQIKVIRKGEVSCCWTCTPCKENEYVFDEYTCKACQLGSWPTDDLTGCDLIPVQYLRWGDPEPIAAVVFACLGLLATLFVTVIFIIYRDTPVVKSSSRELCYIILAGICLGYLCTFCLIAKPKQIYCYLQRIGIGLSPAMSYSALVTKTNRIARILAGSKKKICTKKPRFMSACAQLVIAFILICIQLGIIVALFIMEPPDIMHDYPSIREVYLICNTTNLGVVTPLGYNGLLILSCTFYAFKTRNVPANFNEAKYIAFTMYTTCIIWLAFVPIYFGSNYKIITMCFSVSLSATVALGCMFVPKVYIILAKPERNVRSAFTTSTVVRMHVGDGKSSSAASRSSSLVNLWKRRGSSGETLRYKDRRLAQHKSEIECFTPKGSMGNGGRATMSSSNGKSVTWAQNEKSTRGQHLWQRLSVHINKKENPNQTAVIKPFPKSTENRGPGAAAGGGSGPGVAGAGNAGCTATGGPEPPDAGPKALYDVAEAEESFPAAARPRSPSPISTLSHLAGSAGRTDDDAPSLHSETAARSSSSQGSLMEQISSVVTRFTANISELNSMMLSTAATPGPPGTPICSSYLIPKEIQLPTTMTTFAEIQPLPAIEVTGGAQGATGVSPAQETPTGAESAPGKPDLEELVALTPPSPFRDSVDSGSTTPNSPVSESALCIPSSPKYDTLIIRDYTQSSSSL
The experiment in a line: mGluR5 binding assay ([3H]-MPEP radioligand competition). The note with it: competition with 3 nM [3H]-MPEP, rat brain cortical membranes, 1 h at 4 °C; mean of at least three independent experiments in duplicate. An excerpt: Activity of compounds of the invention was examined following a radioligand binding technique using whole rat brain and tritiated 2-methyl-6-(phenylethynyl)-pyridine ([^3H]-MPEP) as a ligand following similar methods than those described in F. Gasparini et al. Bioorg. Med. Chem. Lett. 2002, 12, 407-409 and in J. F. Anderson et al. J. Pharmacol. Exp. Ther. 2002, 303, 3, 1044-1051.
Cortices were dissected out from brains of 200-300 g Sprague-Dawley rats (Charles River Laboratories, L'Arbresle, France). Tissues were homogenized in 10 volumes (vol/wt) of ice-cold 50 mM Hepes-NaOH (pH 7.4) using a Polytron disrupter (Kinematica AG, Luzern, Switzerland) and centrifuged for 30 min at 40,000 g. (4° C.). The supernatant was discarded and the pellet washed twice by resuspension in 10 volumes 50 mM HEPES-NaOH. Membranes were then collected by centrifugation and washed before final resuspension in 10 volumes of 20 mM HEPES-NaOH, pH 7.4. Protein concentration was determined by the Bradford method (Bio-Rad protein assay, Reinach, Switzerland) with bovine serum albumin as standard.
[^3H]-MPEP Binding Experiments:
Membranes were thawed and resuspended in binding buffer containing 20 mM HEPES-NaOH, 3 mM MgCl2, 3 mM CaCl2, 100 mM NaCl, pH 7.4. Competition studies were carried out by incubating for 1 h at 4° C.: 3 nM [^3H]-MPEP (39 Ci/mmol, Tocris, Cookson Ltd, Bristol, U.K.), 50 μg membrane and a concentration range of 0.003 nM-30 μM of compounds, for a total reaction volume of 300 μl. The non-specific binding was defined using 30 μM MPEP. Reaction was terminated by rapid filtration over glass-fiber filter plates (Unifilter 96-well GF/B filter plates, Perkin-Elmer, Schwerzenbach, Switzerland) using 4×400 μl ice cold buffer using cell harvester (Filtermate, Perkin-Elmer, Downers Grove, USA). Radioactivity was determined by liquid scintillation spectrometry using a 96-well plate reader (TopCount, Perkin-Elmer, Downers Grove, USA).
The inhibition curves were generated using the Prism GraphPad program (Graph Pad Software Inc, San Diego, USA). IC50 determinations were made from data obtained from 8 point-concentration response curves using a non linear regression analysis.
The table below represents the mean of IC50 obtained from at least three independent experiments of selected molecules performed in duplicate.
In general terms: In a radioligand displacement assay an active substance lowers the binding of a labelled ligand.
Broadly, the IC50 is the concentration at which inhibition is half-maximal. High values mean lower potency, low ones higher potency. Compound `C(#Cc1ccccn1)CCc1cc(-c2ccccc2)no1` [Example 111, 2-(4-(3-Phenylisoxazol-5-yl)but-1-ynyl)pyridine] showed an IC50 of less than 10 µM.
The value for `Cc1nc(C#CCCc2nc3ccccc3s2)cs1` [Example 112, 2-(4-(2-Methylthiazol-4-yl)but-3-ynyl)benzo[d]thiazole] was less than 0.05 µM; that for `Fc1ccc(C#CCCc2nc3ccccc3s2)nc1` [Example 113, 2-(4-(5-Fluoropyridin-2-yl)but-3-ynyl)benzo[d]thiazole] was less than 10 µM.
Under `Cc1cccc(C#CCCc2nc3ccccc3s2)n1` [Example 114, 2-(4-(6-Methylpyridin-2-yl)but-3-ynyl)benzo[d]thiazole] stands less than 0.05 µM; under `Fc1ccc(Cl)c2sc(CCC#Cc3ccccn3)nc12` [Example 116, 7-Chloro-4-fluoro-2-(4-(pyridin-2-yl)but-3-ynyl)benzo[d]thiazole], less than 0.05 µM.
For `Fc1cccc(C#CCCc2nc3ccccc3s2)n1` [Example 117, 2-(4-(6-Fluoropyridin-2-yl)but-3-ynyl)benzo[d]thiazole], the concentration for half-maximal inhibition (IC50) is less than 10 µM.
Consider `C(#Cc1ccccn1)CCc1ccc2ccccc2n1` [Example 118, 2-(4-(Pyridin-2-yl)but-3-ynyl)quinoline], for which the half-maximal inhibitory concentration (IC50) is less than 0.5 µM.
Compound `Cn1ccc(C#CCCc2nc3ccccc3s2)n1` [Example 121, 2-(4-(1-Methyl-1H-pyrazol-3-yl)but-3-ynyl)benzo[d]thiazole] showed an IC50 of less than 10 µM.
In turn, `C(#Cc1ccccn1)CCn1cc(-c2ccccc2)cn1` [Example 122, 2-(4-(4-Phenyl-1H-pyrazol-1-yl)but-1-ynyl)pyridine] came in with an IC50 of less than 10 µM.
The value for `Clc1cccc2cn(CCC#Cc3ccccn3)nc12` [Example 123, 7-Chloro-2-(4-(pyridin-2-yl)but-3-ynyl)-2H-indazole] was less than 10 µM; that for `C(#Cc1ccccn1)CCCCn1nc2ccccc2n1` [Example 124, 2-(6-(Pyridin-2-yl)hex-5-ynyl)-2H-benzo[d][1,2,3]triazole] was less than 10 µM.
Turning to `Fc1ccc2nn(CCC#Cc3ccccn3)nc2c1` [Example 127, 5-Fluoro-2-(4-(pyridin-2-yl)but-3-ynyl)-2H-benzo[d][1,2,3]triazole], the IC50 was less than 10 µM.
`Cc1cccc(C#CCCc2ccc3ccccc3n2)n1` [Example 128, 2-(4-(6-Methylpyridin-2-yl)but-3-ynyl)quinoline] showed a half-inhibitory concentration (IC50) of less than 0.05 µM.
The value for `FCc1cccc(C#CCCn2cc3ccccc3n2)n1` [Example 133, 2-(4-(6-(Fluoromethyl)pyridin-2-yl)but-3-ynyl)-2H-indazole] was less than 10 µM.
Under `Fc1cc(F)c2nn(CCC#Cc3ccccn3)nc2c1` [Example 135, 4,6-Difluoro-2-(4-(pyridin-2-yl)but-3-ynyl)-2H-benzo[d][1,2,3]triazole] stands less than 10 µM.
In turn, `Fc1ccc2nn(CCC#Cc3ccccn3)nc2c1F` [Example 136, 4,5-Difluoro-2-(4-(pyridin-2-yl)but-3-ynyl)-2H-benzo[d][1,2,3]triazole] had a 50% inhibitory concentration (IC50) of less than 10 µM.
In turn, `Cc1cccc(C#CCCn2nc3ccccc3n2)n1` [Example 137, 2-(4-(6-Methylpyridin-2-yl)but-3-ynyl)-2H-benzo[d][1,2,3]triazole] gave an IC50 of less than 0.05 µM.
Under `Fc1cccnc1C#CCCn1nc2ccccc2n1` [Example 138, 2-(4-(3-Fluoropyridin-2-yl)but-3-ynyl)-2H-benzo[d][1,2,3]triazole] stands less than 10 µM.
Take `FCc1cccc(C#CCCn2nc3ccc(F)cc3n2)n1` [Example 139, 5-Fluoro-2-(4-(6-(fluoromethyl)pyridin-2-yl)but-3-ynyl)-2H-benzo[d][1,2,3]triazole]: the IC50 was less than 0.05 µM.
The value for `Fc1ccc(-c2cnn(CCC#Cc3ccccn3)c2)cc1` [Example 140, 2-(4-(4-(4-Fluorophenyl)-1H-pyrazol-1-yl)but-1-ynyl)pyridine] was less than 10 µM.
Regarding `Cc1nc(C#CCCn2nc3ccccc3n2)cs1` [Example 141, 2-(4-(2-Methylthiazol-4-yl)but-3-ynyl)-2H-benzo[d][1,2,3]triazole], the IC50 was less than 0.05 µM.
